Source: PMC5215601, “Functional Characterization of the N-Terminal C2 Domain from Arabidopsis thaliana Phospholipase Dα and Dβ” (BioMed Research International, 2016)

Columns and labels:
[1] = biological target: T1, C2β domain of AtPLDβ (mC2β) (Arabidopsis thaliana, UniProt P93733, F299V); assay: protein to dansyl-PE liposome FRET; format: binding; conditions: 20 μM liposomes with 5% dansyl-PE, 1 μM domain, 50 mM HEPES pH 8, 30 °C; 0, 50 or 200 μM Ca2+
T1 construct: gene PLDBETA1; C2 domain cut to match mature-like C2α; forward primer encodes MVGRLPG (second codon F changed to V); C-terminal 6xHis kept
T1 sequence (P93733 298-418 F299V): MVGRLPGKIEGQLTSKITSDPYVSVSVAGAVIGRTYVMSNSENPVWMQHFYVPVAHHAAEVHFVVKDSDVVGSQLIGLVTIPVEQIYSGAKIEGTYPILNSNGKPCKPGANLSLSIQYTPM

[2] = biological target: T2, C2α domain of AtPLDα (mC2α) (Arabidopsis thaliana, UniProt Q38882); assay: protein to dansyl-PE liposome FRET; lipid dot-blot; format: binding; conditions: 20 μM liposomes with 5% dansyl-PE, 1 μM domain, 50 mM HEPES pH 8, 30 °C; 0, 50 or 200 μM Ca2+
T2 construct: gene PLDALPHA1; mature-like C2 domain lacking the N-terminal residues; forward primer encodes (M)ANVEET, extra Met added; last encoded residues before tag ...LQYFHVE by reverse primer; C-terminal 6xHis kept
T2 sequence (Q38882 35-152): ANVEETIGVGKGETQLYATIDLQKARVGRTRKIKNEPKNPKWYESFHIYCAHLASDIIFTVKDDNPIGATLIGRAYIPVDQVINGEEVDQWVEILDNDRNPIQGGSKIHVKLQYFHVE

[3] = biological target: T1, C2β domain of AtPLDβ (mC2β); assay: protein to dansyl-PE liposome FRET; lipid dot-blot; format: binding; conditions: 20 μM liposomes with 5% dansyl-PE, 1 μM domain, 50 mM HEPES pH 8, 30 °C; 0, 50 or 200 μM Ca2+
[4] = biological target: T3, AtPLDα-WT (Arabidopsis thaliana, UniProt Q38882); assay: choline oxidase / peroxidase coupled colorimetric assay, […] nm; format: biochemical; conditions: crude P. pastoris extract; 266 μM POPC in SDS / Triton X-100 mixed micelles, 20 mM CaCl2, 50 mM Tris-HCl pH 8.0
T3 construct: gene PLDALPHA1; full-length cDNA, untagged, Pichia pastoris X-33; possibly N-glycosylated
T3 sequence (Q38882 36-810): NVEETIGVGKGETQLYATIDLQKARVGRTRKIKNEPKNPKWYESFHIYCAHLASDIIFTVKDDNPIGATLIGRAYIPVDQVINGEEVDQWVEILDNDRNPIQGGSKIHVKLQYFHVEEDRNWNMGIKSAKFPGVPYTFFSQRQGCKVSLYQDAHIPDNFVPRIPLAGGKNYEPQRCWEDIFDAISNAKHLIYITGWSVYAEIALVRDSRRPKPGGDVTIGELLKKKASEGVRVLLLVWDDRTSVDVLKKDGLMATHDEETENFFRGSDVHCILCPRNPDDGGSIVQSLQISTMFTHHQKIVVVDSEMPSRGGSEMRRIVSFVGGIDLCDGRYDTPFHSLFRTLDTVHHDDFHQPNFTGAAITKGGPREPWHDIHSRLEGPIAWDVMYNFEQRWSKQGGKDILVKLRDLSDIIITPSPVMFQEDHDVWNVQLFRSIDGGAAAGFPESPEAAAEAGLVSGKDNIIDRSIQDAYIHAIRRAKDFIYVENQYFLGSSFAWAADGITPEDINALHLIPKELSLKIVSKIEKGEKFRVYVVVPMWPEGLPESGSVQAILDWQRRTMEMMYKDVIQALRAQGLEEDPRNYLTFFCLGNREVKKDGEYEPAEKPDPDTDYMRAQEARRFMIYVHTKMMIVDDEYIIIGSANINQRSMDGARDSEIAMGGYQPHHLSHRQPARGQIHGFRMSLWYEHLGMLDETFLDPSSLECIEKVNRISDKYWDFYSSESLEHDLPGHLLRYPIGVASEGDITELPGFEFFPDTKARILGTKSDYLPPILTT

Row | SMILES | relative FRET [1] | relative FRET [2] | relative FRET [3] | PLD activity [4]
1 | CCCCCCCC/C=C\CCCCCCCC(=O)O[C@H](COC(=O)CCCCCCCCCCCCCCC)COP(=O)(O)OCC(O)CO (mixture of isomers) [PG, 1-Palmitoyl-2-oleoyl-sn-glycero-3-phospho-(1′-rac-glycerol)] | both C2 domains showed a strong binding to PG vesicles | both C2 domains showed a strong binding to PG vesicles |  | 
2 | CCCCCCCC/C=C\CCCCCCCC(=O)O[C@H](COC(=O)CCCCCCCCCCCCCCC)COP(=O)(O)O [PA, 1-palmitoyl-2-oleoyl-sn-glycero-3-phosphate] |  | both C2 domains were found to bind anionic phospholipids (PA and PS) | both C2 domains were found to bind anionic phospholipids (PA and PS) | 
3 | CCCCCCCC/C=C\CCCCCCCC(=O)O[C@H](COC(=O)CCCCCCCCCCCCCCC)COP(=O)([O-])OCC[N+](C)(C)C [PC, 1-Palmitoyl-2-oleoyl-sn-glycero-3-phosphocholine] |  |  |  | crude extracts of P. pastoris transformed with the AtPLDα-WT exhibited a higher PLD activity
